Measurements published in ChEMBL document CHEMBL3885861, “Open TG-GATES”.

Species on record: Rattus norvegicus
Experiment: Open TG-GATES - Regimen: Daily Repeat
Type: toxicity, organism-based, Sprague-Dawley
Parameters: regimen Daily Repeat, gender Male, age 6 weeks
Conditions: in vivo, po, route gavage; for TG / TP / gamma-GTP / ALP / ALT / AST / BUN / CRE / Ca / Cl / DBIL / GLC / IP / K / LDH / Na / PL / RALB / TBIL / TC: tissue Plasma; for APTT / Bas / Eos / Fbg / Ht / Lym / MCH / MCHC / MCV / Mono / PT / Plat / RBC / Ret / WBC / Hb / Neu: tissue Blood; for KIDNEY_L / KIDNEY_R / KIDNEY_TOTAL: tissue Kidney; for LIVER: tissue Liver
[1] = 0 mg/kg, […], dose level Control, time 28 day
[2] = 100 mg/kg, 72 h, dose level Low, time 3 day
[3] = 100 mg/kg, […], dose level Low, time 7 day
[4] = 100 mg/kg, […], dose level Low, time 14 day
[5] = 100 mg/kg, […], dose level Low, time 28 day

Structure (SMILES): CCOc1ccc(NC(C)=O)cc1 [PHENACETIN]
- TG [1]: 162.4 mg/dL
- TP [1]: 6.4 g/dL
- gamma-GTP [1]: 1 IU/L
- TERMINAL_BW [2]: 232.8 g
- APTT [2]: 20.2 s
- Bas [2]: 0%
- Eos [2]: 1.2%
- Fbg [2]: 290.4 mg/dL
- Ht [2]: 41.7%
- Lym [2]: 76.8%
- MCH [2]: 20.4 pg
- MCHC [2]: 33%
- MCV [2]: 61.8 fL
- Mono [2]: 2.6%
- PT [2]: 13.4 s
- Plat [2]: 116.5 x10_4/uL
- RBC [2]: 676.4 x10_4/ul
- Ret [2]: 5.2%
- WBC [2]: 101.2 x10_2/uL
- KIDNEY_L [2]: 1 g
- KIDNEY_R [2]: 1 g
- KIDNEY_TOTAL [2]: 2.1 g
- LIVER [2]: 10.9 g
- ALP [2]: 1708.4 IU/L
- ALT [2]: 40 IU/L
- AST [2]: 70.4 IU/L
- BUN [2]: 13 mg/dL
- CRE [2]: 0.2 mg/dL
- Ca [2]: 11.2 mg/dL
- Cl [2]: 105.8 meq/L
- DBIL [2]: 0.006 mg/dL
- GLC [2]: 172.8 mg/dL
- IP [2]: 6.8 mg/dL
- K [2]: 4.2 meq/L
- LDH [2]: 148 IU/L
- Na [2]: 143.4 meq/L
- PL [2]: 158.8 mg/dL
- RALB [2]: 2.7 g/dL
- TBIL [2]: 0.04 mg/dL
- TC [2]: 77 mg/dL
- TG [2]: 110.6 mg/dL
- TP [2]: 5.8 g/dL
- gamma-GTP [2]: 1.2 IU/L
- TERMINAL_BW [3]: 270.6 g
- TERMINAL_BW [4]: 323.2 g
- TERMINAL_BW [5]: 411.2 g
- APTT [3]: 16.8 s
- Bas [3]: 0%
- Eos [3]: 1.2%
- Fbg [3]: 298.2 mg/dL
- Hb [3]: 14.1 g/dL
- Ht [3]: 42%
- Lym [3]: 78.2%
- MCHC [3]: 33.7%
- MCV [3]: 60.3 fL
- Mono [3]: 2%
- Neu [3]: 18%
- PT [3]: 13.4 s
- Plat [3]: 123.3 x10_4/uL
- RBC [3]: 696.4 x10_4/ul
- Ret [3]: 5.6%
- WBC [3]: 96.3 x10_2/uL
- APTT [4]: 17.8 s
- Bas [4]: 0.4%
- Eos [4]: 0.8%
- Fbg [4]: 292.4 mg/dL
- Ht [4]: 43.4%
- Lym [4]: 79.8%
- MCH [4]: 19.9 pg
- MCHC [4]: 34%
- MCV [4]: 58.5 fL
- Mono [4]: 2%
- Neu [4]: 16.6%
- PT [4]: 13.3 s
- Plat [4]: 118.2 x10_4/uL
- RBC [4]: 740.8 x10_4/ul
- Ret [4]: 4.1%
- WBC [4]: 112.5 x10_2/uL
- APTT [5]: 18.4 s
- Bas [5]: 0%
- Eos [5]: 1.6%
- Fbg [5]: 278.8 mg/dL
- Hb [5]: 15 g/dL
- Ht [5]: 43.8%
- MCH [5]: 19 pg
- MCHC [5]: 34.3%
- MCV [5]: 55.3 fL
- Mono [5]: 2.4%
- Plat [5]: 122.4 x10_4/uL
- RBC [5]: 792.8 x10_4/ul
- Ret [5]: 3%
- WBC [5]: 92.4 x10_2/uL
- KIDNEY_L [3]: 1.1 g
- KIDNEY_R [3]: 1.1 g
- KIDNEY_TOTAL [3]: 2.3 g
- KIDNEY_L [4]: 1.2 g
- KIDNEY_R [4]: 1.2 g
- KIDNEY_TOTAL [4]: 2.5 g
- KIDNEY_L [5]: 1.4 g
- KIDNEY_R [5]: 1.4 g
- KIDNEY_TOTAL [5]: 2.8 g
- LIVER [3]: 12.8 g
- LIVER [4]: 13.9 g
- LIVER [5]: 16.4 g
- ALP [3]: 1550.8 IU/L
- BUN [3]: 15.4 mg/dL
- CRE [3]: 0.2 mg/dL
- Ca [3]: 11.2 mg/dL
- Cl [3]: 104.8 meq/L
- DBIL [3]: 0.006 mg/dL
- GLC [3]: 186 mg/dL
- IP [3]: 6.9 mg/dL
- K [3]: 4.3 meq/L
- LDH [3]: 79.4 IU/L
- Na [3]: 143.4 meq/L
- PL [3]: 165.2 mg/dL
- RALB [3]: 2.7 g/dL
- TBIL [3]: 0.044 mg/dL
- TG [3]: 152 mg/dL
- TP [3]: 6 g/dL
- gamma-GTP [3]: 1 IU/L
- ALP [4]: 1582 IU/L
- ALT [4]: 39.4 IU/L
- AST [4]: 66.4 IU/L
- CRE [4]: 0.2 mg/dL
- Ca [4]: 10.9 mg/dL
- Cl [4]: 106 meq/L
- DBIL [4]: 0.022 mg/dL
- GLC [4]: 184.2 mg/dL
- IP [4]: 6.7 mg/dL
- K [4]: 4.2 meq/L
- LDH [4]: 118.6 IU/L
- Na [4]: 143.4 meq/L
- PL [4]: 162 mg/dL
- RALB [4]: 2.7 g/dL
- TBIL [4]: 0.062 mg/dL
- TC [4]: 73.8 mg/dL
- TG [4]: 157 mg/dL
- TP [4]: 6 g/dL
- gamma-GTP [4]: 1.2 IU/L
- ALP [5]: 1231.2 IU/L
- ALT [5]: 35.8 IU/L
- AST [5]: 60.8 IU/L
- BUN [5]: 15.6 mg/dL
- CRE [5]: 0.3 mg/dL
- Ca [5]: 10.8 mg/dL
- Cl [5]: 105.6 meq/L
- DBIL [5]: 0.02 mg/dL
- GLC [5]: 191.8 mg/dL
- IP [5]: 6.1 mg/dL
- K [5]: 3.7 meq/L
- LDH [5]: 66.6 IU/L
- Na [5]: 145.2 meq/L
- PL [5]: 148 mg/dL
- RALB [5]: 2.9 g/dL
- TBIL [5]: 0.052 mg/dL
- TC [5]: 63.8 mg/dL
- TG [5]: 156 mg/dL
